According to patent US12365696B2, “Small-molecule focal adhesion kinase (FAK) inhibitors” (DANA-FARBER CANCER INSTITUTE, INC., priority 2019, dated 2025):
Like-named read-outs stand apart in the source and are kept apart here.

What was measured:
Test in all cases: KINOMEscan
Format in all cases: binding
[1] = molecular target: ABL1(F317I)-phosphorylated (Homo sapiens (Human), UniProt P00519, F317I); conditions: 10000 nM, read-out: Percent Control
[2] = molecular target: ABL1(F317L)-phosphorylated (Homo sapiens (Human), UniProt P00519, F317L); conditions: 10000 nM, read-out: Percent Control
[3] = molecular target: ABL1(Q252H)-nonphosphorylated (Homo sapiens (Human), UniProt P00519, Q252H); conditions: 10000 nM, read-out: Percent Control
[4] = molecular target: ABL1(Q252H)-phosphorylated (Homo sapiens (Human), UniProt P00519, Q252H); conditions: 10000 nM, read-out: Percent Control
[5] = molecular target: ABL1(T315I)-phosphorylated (Homo sapiens (Human), UniProt P00519, T315I); conditions: 10000 nM, read-out: Percent Control
[6] = molecular target: ABL2 (Homo sapiens (Human), UniProt P42684); conditions: ABL2, 10000 nM; read-out: Percent Control
[7] = molecular target: ACVR2B (Homo sapiens (Human), UniProt Q13705); conditions: 10000 nM, read-out: Percent Control
[8] = molecular target: ALK(L1196M) (Homo sapiens (Human), UniProt Q9UM73, L1196M); conditions: 10000 nM, read-out: Percent Control
[9] = molecular target: BRAF(V600E) (Homo sapiens (Human), UniProt P15056, V600E); conditions: 10000 nM, read-out: Percent Control
[10] = molecular target: CAMK2A (Homo sapiens (Human), UniProt Q9UQM7); conditions: 10000 nM, read-out: Percent Control
[11] = molecular target: CAMK2D (Homo sapiens (Human), UniProt Q13557); conditions: 10000 nM, read-out: Percent Control
[12] = molecular target: DCAMKL1 (Homo sapiens (Human), UniProt O15075); conditions: DCAMKL1, 10000 nM; read-out: Percent Control
[13] = molecular target: EIF2AK1 (Homo sapiens (Human), UniProt Q9BQI3); conditions: EIF2AK1, 10000 nM; read-out: Percent Control
[14] = molecular target: ERBB3 (Homo sapiens (Human), UniProt P21860); conditions: ERBB3, 10000 nM; read-out: Percent Control
[15] = molecular target: ERBB4 (Homo sapiens (Human), UniProt Q15303); conditions: ERBB4, 10000 nM; read-out: Percent Control
[16] = molecular target: FGFR2 (Homo sapiens (Human), UniProt P21802); conditions: FGFR2, 10000 nM; read-out: Percent Control
[17] = molecular target: HASPIN (Homo sapiens (Human), UniProt Q8TF76); conditions: 10000 nM, read-out: Percent Control
[18] = molecular target: JAK2(JH1domain-catalytic) (Homo sapiens (Human), UniProt O60674); conditions: 10000 nM, read-out: Percent Control
[19] = molecular target: JAK3(JH1domain-catalytic) (Homo sapiens (Human), UniProt P52333); conditions: 10000 nM, read-out: Percent Control
[20] = molecular target: MAPKAPK2 (Homo sapiens (Human), UniProt P49137); conditions: MAPKAPK2, 10000 nM; read-out: Percent Control
[21] = molecular target: MAPKAPX5 (Homo sapiens (Human), UniProt Q8IW41); conditions: read-out: Percent Control
[22] = molecular target: MARK2 (Homo sapiens (Human), UniProt Q7KZI7); conditions: MARK2, 10000 nM; read-out: Percent Control
Sequence of MARK2 (Q7KZI7 whole entry): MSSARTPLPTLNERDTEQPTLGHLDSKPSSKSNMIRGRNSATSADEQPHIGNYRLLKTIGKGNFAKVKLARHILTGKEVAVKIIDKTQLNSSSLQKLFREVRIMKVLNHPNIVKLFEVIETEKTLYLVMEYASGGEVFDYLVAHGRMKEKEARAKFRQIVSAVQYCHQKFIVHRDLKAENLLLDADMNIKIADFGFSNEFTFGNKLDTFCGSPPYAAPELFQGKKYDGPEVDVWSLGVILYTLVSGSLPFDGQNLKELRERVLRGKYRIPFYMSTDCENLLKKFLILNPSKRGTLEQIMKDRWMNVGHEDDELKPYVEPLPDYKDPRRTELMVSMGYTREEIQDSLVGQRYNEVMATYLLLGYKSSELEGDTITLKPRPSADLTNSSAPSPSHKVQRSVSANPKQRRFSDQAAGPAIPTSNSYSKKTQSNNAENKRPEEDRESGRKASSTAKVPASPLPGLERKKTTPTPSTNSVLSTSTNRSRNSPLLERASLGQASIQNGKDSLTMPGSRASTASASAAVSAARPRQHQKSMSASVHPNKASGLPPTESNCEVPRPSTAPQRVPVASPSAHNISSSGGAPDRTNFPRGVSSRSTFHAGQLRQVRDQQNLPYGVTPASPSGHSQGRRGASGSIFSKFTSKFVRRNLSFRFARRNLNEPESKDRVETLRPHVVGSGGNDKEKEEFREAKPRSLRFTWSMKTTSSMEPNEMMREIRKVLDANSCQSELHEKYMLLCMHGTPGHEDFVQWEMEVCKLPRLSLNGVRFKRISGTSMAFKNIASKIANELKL

[23] = molecular target: MST4 (Homo sapiens (Human), UniProt Q9P289); conditions: MST4, 10000 nM; read-out: Percent Control
Sequence of MST4 (Q9P289 whole entry): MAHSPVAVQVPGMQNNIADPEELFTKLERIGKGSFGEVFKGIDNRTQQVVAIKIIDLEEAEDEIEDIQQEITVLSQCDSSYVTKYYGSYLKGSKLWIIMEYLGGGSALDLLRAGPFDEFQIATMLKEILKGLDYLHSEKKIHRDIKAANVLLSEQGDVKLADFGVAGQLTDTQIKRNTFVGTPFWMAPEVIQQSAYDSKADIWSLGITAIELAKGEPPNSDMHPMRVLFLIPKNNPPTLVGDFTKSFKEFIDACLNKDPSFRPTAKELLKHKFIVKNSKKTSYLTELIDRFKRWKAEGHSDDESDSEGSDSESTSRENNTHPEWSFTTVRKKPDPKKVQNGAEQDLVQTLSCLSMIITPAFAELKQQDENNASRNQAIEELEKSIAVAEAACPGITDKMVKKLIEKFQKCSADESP

[24] = molecular target: PFTK1 (Homo sapiens (Human), UniProt O94921); conditions: PFTK1, 10000 nM; read-out: Percent Control
Sequence of PFTK1 (O94921 whole entry): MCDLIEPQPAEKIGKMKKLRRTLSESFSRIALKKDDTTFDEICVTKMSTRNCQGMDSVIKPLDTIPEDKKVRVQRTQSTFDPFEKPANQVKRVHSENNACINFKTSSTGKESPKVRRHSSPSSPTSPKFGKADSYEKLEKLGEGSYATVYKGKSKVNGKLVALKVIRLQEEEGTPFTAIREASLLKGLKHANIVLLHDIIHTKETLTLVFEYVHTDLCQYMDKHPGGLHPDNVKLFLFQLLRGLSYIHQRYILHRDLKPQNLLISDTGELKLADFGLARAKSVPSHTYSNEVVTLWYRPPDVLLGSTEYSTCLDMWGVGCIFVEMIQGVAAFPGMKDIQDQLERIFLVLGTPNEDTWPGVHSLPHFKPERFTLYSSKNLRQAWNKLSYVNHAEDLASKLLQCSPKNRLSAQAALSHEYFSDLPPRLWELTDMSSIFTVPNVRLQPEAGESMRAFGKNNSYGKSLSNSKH

[25] = molecular target: PIK3CA(C420R) (Homo sapiens (Human), UniProt P42336, C420R); conditions: 10000 nM, read-out: Percent Control
[26] = molecular target: PKN1 (Homo sapiens (Human), UniProt Q16512); conditions: PKN1, 10000 nM; read-out: Percent Control
[27] = molecular target: PRKD2 (Homo sapiens (Human), UniProt Q9BZL6); conditions: PRKD2, 10000 nM; read-out: Percent Control
[28] = molecular target: (Homo sapiens (Human), UniProt P57078); conditions: read-out: Percent Control
[29] = molecular target: TBK1 (Homo sapiens (Human), UniProt Q9UHD2); conditions: TBK1, 10000 nM; read-out: Percent Control
[30] = molecular target: TGFBR2 (Homo sapiens (Human), UniProt P37173); conditions: TGFBR2, 10000 nM; read-out: Percent Control
[31] = molecular target: WEE2 (Homo sapiens (Human), UniProt P0C1S8); conditions: WEE2, 10000 nM; read-out: Percent Control
[32] = molecular target: WNK1 (Homo sapiens (Human), UniProt Q9H4A3); conditions: WNK1, 10000 nM; read-out: Percent Control
Sequence of WNK1 (Q9H4A3 whole entry): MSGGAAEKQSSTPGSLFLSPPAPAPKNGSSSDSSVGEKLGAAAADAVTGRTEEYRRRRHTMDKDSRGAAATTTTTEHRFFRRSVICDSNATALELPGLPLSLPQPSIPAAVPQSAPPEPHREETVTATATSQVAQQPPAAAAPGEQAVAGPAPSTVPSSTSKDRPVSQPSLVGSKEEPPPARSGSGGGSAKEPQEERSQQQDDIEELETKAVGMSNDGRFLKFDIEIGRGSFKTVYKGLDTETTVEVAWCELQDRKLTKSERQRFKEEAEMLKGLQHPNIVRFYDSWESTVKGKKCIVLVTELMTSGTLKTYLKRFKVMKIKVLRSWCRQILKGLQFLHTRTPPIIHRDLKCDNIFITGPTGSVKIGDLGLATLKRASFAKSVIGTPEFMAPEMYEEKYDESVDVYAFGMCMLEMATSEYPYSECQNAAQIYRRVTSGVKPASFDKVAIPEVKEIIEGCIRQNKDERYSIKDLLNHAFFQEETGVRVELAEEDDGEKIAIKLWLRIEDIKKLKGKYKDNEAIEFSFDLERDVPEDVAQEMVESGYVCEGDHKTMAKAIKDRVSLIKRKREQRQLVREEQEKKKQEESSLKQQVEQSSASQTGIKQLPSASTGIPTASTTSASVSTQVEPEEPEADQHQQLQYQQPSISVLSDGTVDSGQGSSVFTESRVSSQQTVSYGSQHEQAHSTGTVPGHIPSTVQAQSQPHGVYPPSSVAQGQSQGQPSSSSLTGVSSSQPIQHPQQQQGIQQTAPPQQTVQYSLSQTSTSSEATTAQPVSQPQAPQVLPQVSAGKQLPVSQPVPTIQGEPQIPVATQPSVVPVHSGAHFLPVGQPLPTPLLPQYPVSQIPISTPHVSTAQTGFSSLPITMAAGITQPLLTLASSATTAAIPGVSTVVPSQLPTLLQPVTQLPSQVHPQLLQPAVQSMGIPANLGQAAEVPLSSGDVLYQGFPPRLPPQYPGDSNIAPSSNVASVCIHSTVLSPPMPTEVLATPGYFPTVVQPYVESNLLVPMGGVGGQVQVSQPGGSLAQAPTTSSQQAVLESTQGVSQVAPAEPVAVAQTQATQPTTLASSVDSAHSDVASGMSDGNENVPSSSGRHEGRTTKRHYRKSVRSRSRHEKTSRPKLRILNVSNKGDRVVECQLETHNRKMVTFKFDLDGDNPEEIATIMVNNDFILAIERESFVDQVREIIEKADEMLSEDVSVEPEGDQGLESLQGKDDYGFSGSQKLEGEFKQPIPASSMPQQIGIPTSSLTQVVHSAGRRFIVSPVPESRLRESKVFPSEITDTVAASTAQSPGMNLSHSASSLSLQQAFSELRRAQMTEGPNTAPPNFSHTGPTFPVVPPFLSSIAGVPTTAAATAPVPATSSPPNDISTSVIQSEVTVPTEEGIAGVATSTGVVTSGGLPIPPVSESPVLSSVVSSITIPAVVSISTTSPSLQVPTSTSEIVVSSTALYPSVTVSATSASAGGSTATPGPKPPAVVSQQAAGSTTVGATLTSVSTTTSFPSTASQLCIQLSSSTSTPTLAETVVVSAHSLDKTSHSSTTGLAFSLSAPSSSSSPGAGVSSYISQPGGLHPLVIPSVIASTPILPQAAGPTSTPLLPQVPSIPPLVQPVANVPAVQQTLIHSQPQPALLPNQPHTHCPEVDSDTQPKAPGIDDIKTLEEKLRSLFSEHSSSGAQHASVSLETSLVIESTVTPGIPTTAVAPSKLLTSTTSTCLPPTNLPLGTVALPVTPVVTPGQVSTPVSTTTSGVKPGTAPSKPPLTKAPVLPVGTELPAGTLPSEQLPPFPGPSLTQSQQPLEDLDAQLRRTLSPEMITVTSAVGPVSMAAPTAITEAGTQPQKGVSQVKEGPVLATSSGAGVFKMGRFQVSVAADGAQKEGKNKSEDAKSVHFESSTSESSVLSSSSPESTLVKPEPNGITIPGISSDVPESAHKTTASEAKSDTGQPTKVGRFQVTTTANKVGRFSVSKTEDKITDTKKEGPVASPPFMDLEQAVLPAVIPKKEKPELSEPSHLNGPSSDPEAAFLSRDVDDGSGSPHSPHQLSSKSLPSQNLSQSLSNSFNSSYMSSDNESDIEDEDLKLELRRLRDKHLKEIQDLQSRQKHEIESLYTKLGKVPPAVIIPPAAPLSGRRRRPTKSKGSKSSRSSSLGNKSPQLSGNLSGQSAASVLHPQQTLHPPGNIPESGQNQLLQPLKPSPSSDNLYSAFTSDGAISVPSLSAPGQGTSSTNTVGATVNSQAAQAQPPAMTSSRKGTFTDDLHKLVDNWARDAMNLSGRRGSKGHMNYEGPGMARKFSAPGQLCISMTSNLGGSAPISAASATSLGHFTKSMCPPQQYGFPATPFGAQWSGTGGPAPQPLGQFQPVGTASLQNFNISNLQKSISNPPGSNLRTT

[33] = molecular target: WNK4 (Homo sapiens (Human), UniProt Q96J92); conditions: WNK4, 10000 nM; read-out: Percent Control
[34] = molecular target: ZAK (Homo sapiens (Human), UniProt Q9NYL2); conditions: 10000 nM, read-out: Percent Control
Sequence of ZAK (Q9NYL2 whole entry): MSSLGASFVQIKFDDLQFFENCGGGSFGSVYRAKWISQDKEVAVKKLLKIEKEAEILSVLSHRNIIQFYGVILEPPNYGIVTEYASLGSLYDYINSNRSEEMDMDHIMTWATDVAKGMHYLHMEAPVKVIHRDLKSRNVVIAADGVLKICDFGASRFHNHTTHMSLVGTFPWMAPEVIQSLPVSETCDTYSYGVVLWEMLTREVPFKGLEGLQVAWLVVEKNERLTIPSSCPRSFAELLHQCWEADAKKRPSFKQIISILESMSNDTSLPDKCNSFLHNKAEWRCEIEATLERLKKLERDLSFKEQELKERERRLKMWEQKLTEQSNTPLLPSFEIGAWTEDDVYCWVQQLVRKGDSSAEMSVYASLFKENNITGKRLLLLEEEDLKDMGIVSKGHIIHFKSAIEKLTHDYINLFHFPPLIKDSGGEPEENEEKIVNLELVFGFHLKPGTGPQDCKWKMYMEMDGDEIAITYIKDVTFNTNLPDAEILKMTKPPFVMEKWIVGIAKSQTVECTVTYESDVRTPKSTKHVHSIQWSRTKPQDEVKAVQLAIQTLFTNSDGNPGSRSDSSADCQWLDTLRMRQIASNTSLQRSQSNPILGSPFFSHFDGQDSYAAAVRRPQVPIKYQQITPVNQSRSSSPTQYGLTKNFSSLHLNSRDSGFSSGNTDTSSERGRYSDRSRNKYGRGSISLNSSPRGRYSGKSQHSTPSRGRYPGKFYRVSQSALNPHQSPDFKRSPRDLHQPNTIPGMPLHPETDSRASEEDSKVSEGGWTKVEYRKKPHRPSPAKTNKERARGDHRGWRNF

| SMILES | remaining binding at 10 µM [1] | remaining binding at 10 µM [2] | remaining binding at 10 µM [3] | remaining binding at 10 µM [4] | remaining binding at 10 µM [5] | remaining binding at 10 µM [6] | remaining binding at 10 µM [7] | remaining binding at 10 µM [8] | remaining binding at 10 µM [9] | remaining binding at 10 µM [10] | remaining binding at 10 µM [11] | remaining binding at 10 µM [12] | remaining binding at 10 µM [13] | remaining binding at 10 µM [14] | remaining binding at 10 µM [15] | remaining binding at 10 µM [16] | remaining binding at 10 µM [17] | remaining binding at 10 µM [18] | remaining binding at 10 µM [19] | remaining binding at 10 µM [20] | other results |
| --- | --- | --- | --- | --- | --- | --- | --- | --- | --- | --- | --- | --- | --- | --- | --- | --- | --- | --- | --- | --- | --- |
| COc1cc(N2CCC(N3CCN(C)CC3)CC2)ccc1Nc1ncc2c(n1)N(C)c1sc(C)nc1C(=O)N2 [Compound 3, 6-((2-methoxy-4-(4-(4-methylpiperazin-1-yl)piperidin-1-yl)phenyl)amino)-2,4-dimethyl-4,9-dihydro-10H-pyrimido[5,4-b]thiazolo[5,4-e][1,4]diazepin-10-one] | 14% | 10% | 7.8% | 9.7% | 93% | 69% | 92% | 80% | 100% | 76% | 82% | 91% | 73% | 100% | 57% | 80% | 96% | 100% | 83% | 100% | remaining binding at 10 µM ([21]; MAPKAPX5, 10000 nM): 100%; remaining binding at 10 µM [22]: 100%; remaining binding at 10 µM [23]: 100%; remaining binding at 10 µM [24]: 90%; remaining binding at 10 µM [25]: 90%; remaining binding at 10 µM [26]: 69%; remaining binding at 10 µM [27]: 72%; remaining binding at 10 µM ([28]; PIPK4, 10000 nM): 100%; remaining binding at 10 µM [29]: 71%; remaining binding at 10 µM [30]: 96%; remaining binding at 10 µM [31]: 65%; remaining binding at 10 µM [32]: 100%; remaining binding at 10 µM [33]: 100%; remaining binding at 10 µM [34]: 92% |
| COc1cc(N2CCC(N3CCN(C)CC3)CC2)ccc1Nc1ncc2c(n1)N(C)c1sc(C)nc1C(=O)N2C [Compound 5, 6-((2-methoxy-4-(4-(4-methylpiperazin-1-yl)piperidin-1-yl)phenyl)amino)-2,4,9-trimethyl-4,9-dihydro-10H-pyrimido[5,4-b]thiazolo[5,4-e][1,4]diazepin-10-one] | 26% | 39% | 93% | 100% | 98% | 95% | 100% | 79% | 97% | 100% | 92% | 7.9% | 100% | 100% | 100% | 100% | 89% | 99% | 100% | 100% | remaining binding at 10 µM ([21]; MAPKAPK5, 10000 nM): 93%; remaining binding at 10 µM [22]: 100%; remaining binding at 10 µM [23]: 100%; remaining binding at 10 µM [24]: 100%; remaining binding at 10 µM [25]: 100%; remaining binding at 10 µM [26]: 100%; remaining binding at 10 µM [27]: 46%; remaining binding at 10 µM ([28]; RIPK4, 10000 nM): 100%; remaining binding at 10 µM [29]: 88%; remaining binding at 10 µM [30]: 98%; remaining binding at 10 µM [31]: 100%; remaining binding at 10 µM [32]: 89%; remaining binding at 10 µM [33]: 100%; remaining binding at 10 µM [34]: 100% |
